From patent publication US8586550B2, “Thiazole derivatives as SGLT2 inhibitors and pharmaceutical composition comprising same” (Green Cross Corporation, priority 2010, dated 2013)

Each compound was assayed against T1, Human SGLT2 (hSGLT2) (Homo sapiens, UniProt P31639) (assay: Sodium-dependent glucose transport (14C-AMG uptake) assay in CHO cells stably expressing hSGLT2). Details: CHO cells expressing hSGLT2, 14C-AMG uptake, 37° C. for 2 h; single determinations; read-out: hSGLT2 Inhibitory Activity IC50.
T1 construct: expressed in transfected cells
T1 sequence (P31639 1-672): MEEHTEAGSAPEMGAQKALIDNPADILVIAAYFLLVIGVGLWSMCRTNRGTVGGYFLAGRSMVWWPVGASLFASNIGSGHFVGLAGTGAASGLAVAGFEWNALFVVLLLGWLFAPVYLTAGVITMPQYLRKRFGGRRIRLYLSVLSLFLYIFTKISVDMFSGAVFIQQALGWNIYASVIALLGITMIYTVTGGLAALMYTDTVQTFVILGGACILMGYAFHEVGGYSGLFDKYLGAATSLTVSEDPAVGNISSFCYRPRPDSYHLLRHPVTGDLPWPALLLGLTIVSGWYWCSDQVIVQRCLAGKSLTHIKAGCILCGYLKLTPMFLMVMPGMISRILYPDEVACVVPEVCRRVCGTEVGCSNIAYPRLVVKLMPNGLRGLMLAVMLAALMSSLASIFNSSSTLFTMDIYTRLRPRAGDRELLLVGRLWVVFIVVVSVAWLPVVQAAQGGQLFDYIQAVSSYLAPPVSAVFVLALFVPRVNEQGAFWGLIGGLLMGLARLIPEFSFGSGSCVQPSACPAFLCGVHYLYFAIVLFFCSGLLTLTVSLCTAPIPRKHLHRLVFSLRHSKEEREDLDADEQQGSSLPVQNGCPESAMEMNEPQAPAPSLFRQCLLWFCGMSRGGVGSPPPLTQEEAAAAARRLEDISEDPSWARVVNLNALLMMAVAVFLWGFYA
Type: cell-based
Procedure, shortened: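 Uptake of 14C-α-methyl-D-glucopyranoside (8 μM labeled, 1 mM unlabeled, NaCl buffer pH 7.4) measured over 2 h at 37 °C with inhibitor in hSGLT2-transfected CHO cells after 10 min choline-buffer pretreatment. Radioactivity by liquid scintillation; IC50 from nonlinear regression.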
In the case of `OC[C@H]1O[C@@H](c2cc(Cc3cnc(-c4ccsc4)s3)c(Cl)cc2F)[C@H](O)[C@@H](O)[C@@H]1O` [Example 203, (2S,3R,4R,5S,6R)-2-(4-Chloro-2-fluoro-5-((2-(thiophen-3-yl)thiazol-5-yl)methyl)phenyl)-6-(hydroxymethyl)tetrahydro-2H-pyran-3,4,5-triol], the IC50 is reported as 1.39 nM.
“(2S,3R,4R,5S,6R)-2-(4-Chloro-2-ethoxy-5-((5-(furan-3-yl)thiazol-2-yl)methyl)phenyl)-6-(hydroxymethyl)tetrahydro-2H-pyran-3,4,5-triol [Example 31]” was tested, and the IC50 was 3.66 nM.
“(2S,3R,4R,5S,6R)-2-(4-Chloro-2-ethoxy-5-((5-(thiophen-3-yl)thiazol-2-yl)methyl)phenyl)-6-(hydroxymethyl)tetrahydro-2H-pyran-3,4,5-triol [Example 80]” showed an IC50 of 1.18 nM.
In the case of “(2S,3R,4R,5S,6R)-2-(4-Chloro-3-((4-phenylthiazol-2-yl)methyl)phenyl)-6-(hydroxymethyl)tetrahydro-2H-pyran-3,4,5-triol [Example 71]”, the IC50 is reported as 1.59 nM.
“(2S,3R,4R,5S,6R)-2-(4-Fluoro-3-((5-(thiazol-3-yl)thiazol-2-yl)methyl)phenyl)-6-(hydroxymethyl)tetrahydro-2H-pyran-3,4,5-triol [Example 43]” was tested, and the IC50 was 7.36 nM.
